Laboratory results reported in US9790215B2 (FLATLEY DISCOVERY LAB, LLC, priority 2013, dated 2017).

Biological target: T1, human ΔF508-CFTR (Homo sapiens, UniProt P13569, DEL508-508)
T1 construct: expressed in transfected cells
Test: CFTR-YFP High Throughput Assay (YFP halide flux in FRT cells)
Format: cell-based
Settings: FRT cells expressing human ΔF508-CFTR and YFP; for EC50: forskolin stimulated
Summary of the method: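 FRT cells stably co-expressing human ΔF508-CFTR and halide-sensitive YFP-H148Q/I152L were treated with compound […] for 24–26 h at 37 °C (corrector mode), washed, then stimulated with 20 μM forskolin plus 30 μM potentiator P3 for 60–120 min at room temperature. Iodide-induced YFP quench (ex 500/em 540 nm) rates came from least-squares fitting.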

T1 sequence (P13569 with tags, fused parts or gaps DEL508-508): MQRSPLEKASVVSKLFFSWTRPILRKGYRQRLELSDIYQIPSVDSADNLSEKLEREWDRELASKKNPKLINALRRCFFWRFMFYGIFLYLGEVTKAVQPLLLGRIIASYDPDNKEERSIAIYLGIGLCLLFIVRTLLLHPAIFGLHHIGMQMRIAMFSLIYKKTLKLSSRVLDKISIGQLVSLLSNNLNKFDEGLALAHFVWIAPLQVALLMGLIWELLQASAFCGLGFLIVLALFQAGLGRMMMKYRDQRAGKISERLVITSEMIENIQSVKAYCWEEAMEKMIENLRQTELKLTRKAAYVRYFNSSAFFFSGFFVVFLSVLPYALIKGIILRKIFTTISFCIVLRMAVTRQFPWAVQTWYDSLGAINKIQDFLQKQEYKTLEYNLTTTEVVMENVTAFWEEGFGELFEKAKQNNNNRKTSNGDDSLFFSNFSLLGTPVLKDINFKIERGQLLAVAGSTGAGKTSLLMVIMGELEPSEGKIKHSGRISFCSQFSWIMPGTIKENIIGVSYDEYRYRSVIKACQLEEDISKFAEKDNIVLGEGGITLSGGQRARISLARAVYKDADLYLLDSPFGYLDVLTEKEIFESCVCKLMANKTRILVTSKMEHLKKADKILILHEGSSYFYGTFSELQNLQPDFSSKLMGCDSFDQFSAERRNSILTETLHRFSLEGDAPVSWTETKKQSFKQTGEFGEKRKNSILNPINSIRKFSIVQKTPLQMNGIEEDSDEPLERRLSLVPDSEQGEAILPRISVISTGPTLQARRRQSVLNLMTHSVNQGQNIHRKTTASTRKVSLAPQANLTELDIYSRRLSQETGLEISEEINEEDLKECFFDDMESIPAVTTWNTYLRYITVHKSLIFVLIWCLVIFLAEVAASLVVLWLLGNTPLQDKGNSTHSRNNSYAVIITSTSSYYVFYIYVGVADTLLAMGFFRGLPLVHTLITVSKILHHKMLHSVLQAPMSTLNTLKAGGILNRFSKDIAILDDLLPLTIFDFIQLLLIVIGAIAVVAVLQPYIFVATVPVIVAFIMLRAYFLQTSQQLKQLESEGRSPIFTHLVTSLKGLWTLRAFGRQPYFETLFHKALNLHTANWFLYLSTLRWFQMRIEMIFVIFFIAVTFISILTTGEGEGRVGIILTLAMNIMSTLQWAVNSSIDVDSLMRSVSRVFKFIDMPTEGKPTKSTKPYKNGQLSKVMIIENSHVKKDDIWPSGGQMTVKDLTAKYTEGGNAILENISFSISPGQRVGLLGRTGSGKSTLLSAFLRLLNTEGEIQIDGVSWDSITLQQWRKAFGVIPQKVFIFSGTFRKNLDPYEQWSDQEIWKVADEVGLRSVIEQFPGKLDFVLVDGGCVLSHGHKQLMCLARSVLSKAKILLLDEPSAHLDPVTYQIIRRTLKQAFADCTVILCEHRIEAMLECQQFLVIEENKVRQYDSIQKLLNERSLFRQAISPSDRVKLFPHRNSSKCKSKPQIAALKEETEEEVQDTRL

Compound	EC50	% Efficacy (Emax normalized to the positive control) (Emax normalized to the positive control)
Cc1ccc(-n2nc(C(=O)N3CCN(Cc4ccccc4)CC3)c3c4ccccc4n(C)c3c2=O)cc1 [Example 112, 1-(4-benzylpiperazine-1-carbonyl)-5-methyl-3-(p-tolyl)-3H-pyridazino[4,5-b]indol-4(5H)-one]	< 10 µM	–
CCN(C(=O)c1nn(-c2ccccc2)c(=O)c2c1c1ccccc1n2C)c1ncccn1 [Example 113, N-ethyl-5-methyl-4-oxo-3-phenyl-N-(pyrimidin-2-yl)-4,5-dihydro-3H-pyridazino[4,5-b]indole-1-carboxamide]	> 20 µM	–
Cc1ccc(-n2nc(C(=O)N(CC(=O)O)c3ccccc3)c3c4ccccc4n(C)c3c2=O)cc1 [Example 114, 2-(5-methyl-4-oxo-N-phenyl-3-(p-tolyl)-4,5-dihydro-3H-pyridazino[4,5-b]indole-1-carboxamido) acetic acid]	> 20 µM	–
CCN(C(=O)c1nn(-c2ccccc2)c(=O)c2c1c1ccccc1n2C)c1ncnc2c1cnn2C [Example 115, N-ethyl-5-methyl-N-(1-methyl-1H-pyrazolo[3,4-d]pyrimidin-4-yl)-4-oxo-3-phenyl-4,5-dihydro-3H-pyridazino[4,5-b]indole-1-carboxamide]	10 to 20 µM	–
CCN(C(=O)c1nn(-c2ccccn2)c(=O)c2c1c1ccccc1n2C)c1ccccc1 [Example 118, N-ethyl-5-methyl-4-oxo-N-phenyl-3-(pyridin-2-yl)-4,5-dihydro-3H-pyridazino[4,5-b]indole-1-carboxamide]	< 10 µM	–
CCN(C(=O)c1nn(-c2cccnc2)c(=O)c2c1c1ccccc1n2C)c1ccccc1 [Example 119]	< 10 µM	–
CCN(C(=O)c1nn(-c2ccncc2)c(=O)c2c1c1ccccc1n2C)c1ccccc1 [Example 120, N-ethyl-5-methyl-4-oxo-N-phenyl-3-(pyridin-4-yl)-4,5-dihydro-3H-pyridazino[4,5-b]indole-1-carboxamide]	< 10 µM	–
CCN(C(=O)c1nn(-c2nccs2)c(=O)c2c1c1ccccc1n2C)c1ccccc1 [Example 121, N-ethyl-5-methyl-4-oxo-N-phenyl-3-(thiazol-2-yl)-4,5-dihydro-3H-pyridazino[4,5-b]indole-1-carboxamide]	< 10 µM	–
CCN(C(=O)c1nn(-c2ncccn2)c(=O)c2c1c1ccccc1n2C)c1ccccc1 [Example 122, N-ethyl-5-methyl-4-oxo-N-phenyl-3-(pyrimidin-2-yl)-4,5-dihydro-3H-pyridazino[4,5-b]indole-1-carboxamide]	10 to 20 µM	–
CCN(C(=O)c1nn(-c2nc3ccccc3s2)c(=O)c2c1c1ccccc1n2C)c1ccccc1 [Example 123, 3-(benzo[d]thiazol-2-yl)-N-ethyl-5-methyl-4-oxo-N-phenyl-4,5-dihydro-3H-pyridazino[4,5-b]indole-1-carboxamide]	10 to 20 µM	–
CCN(C(=O)c1nn(-c2nc3ccccc3n2C)c(=O)c2c1c1ccccc1n2C)c1ccccc1 [Example 124, N-ethyl-5-methyl-3-(1-methyl-1H-benzo[d]imidazol-2-yl)-4-oxo-N-phenyl-4,5-dihydro-3H-pyridazino[4,5-b]indole-1-carboxamide]	> 20 µM	–
CCN(C(=O)c1nn(-c2ccccc2F)c(=O)c2c1c1ccccc1n2C)c1ccccc1 [Example 125, N-ethyl-3-(2-fluorophenyl)-5-methyl-4-oxo-N-phenyl-4,5-dihydro-3H-pyridazino[4,5-b]indole-1-carboxamide]	< 10 µM	–
CCN(C(=O)c1nn(-c2ccccc2)c(=O)c2c1c1ccccc1n2C)c1cccc(F)c1 [Example 126, N-ethyl-N-(3-fluorophenyl)-5-methyl-4-oxo-3-phenyl-4,5-dihydro-3H-pyridazino[4,5-b]indole-1-carboxamide]	< 10 µM	–
CCN(C(=O)c1nn(-c2ccccc2F)c(=O)c2c1c1ccccc1n2C)c1ccccc1 [Example 127, N-ethyl-3-(2-fluorophenyl)-5-methyl-4-oxo-N-phenyl-4,5-dihydro-3H-pyridazino[4,5-b]indole-1-carboxamide]	< 10 µM	+++ (EMAX > 80%)
CCN(C(=O)c1nn(-c2cnc3ccccc3c2)c(=O)c2c1c1ccccc1n2C)c1ccccc1 [Example 128, N-ethyl-5-methyl-4-oxo-N-phenyl-3-(quinolin-3-yl)-4,5-dihydro-3H-pyridazino[4,5-b]indole-1-carboxamide]	< 10 µM	–
CCN(C(=O)c1nn(-c2ccc(Cl)cc2)c(=O)c2c1c1ccccc1n2C)c1ccccc1 [Example 129, 3-(4-chlorophenyl)-N-ethyl-5-methyl-4-oxo-N-phenyl-4,5-dihydro-3H-pyridazino[4,5-b]indole-1-carboxamide]	< 10 µM	–
CCN(C(=O)c1nn(-c2ccc(OC)cc2)c(=O)c2c1c1ccccc1n2C)c1ccccc1 [Example 130, N-ethyl-3-(4-methoxyphenyl)-5-methyl-4-oxo-N-phenyl-4,5-dihydro-3H-pyridazino[4,5-b]indole-1-carboxamide]	< 10 µM	–
CCN(C(=O)c1nn(-c2ccc(C)cn2)c(=O)c2c1c1ccccc1n2C)c1ccccc1 [Example 131, N-ethyl-5-methyl-3-(5-methylpyridin-2-yl)-4-oxo-N-phenyl-4,5-dihydro-3H-pyridazino[4,5-b]indole-1-carboxamide]	< 10 µM	–
CCN(C(=O)c1nn(-c2ccccc2)c(=O)c2c1c1ccccc1n2C)c1cccc(Cl)c1 [Example 132, N-(3-chlorophenyl)-N-ethyl-5-methyl-4-oxo-3-phenyl-4,5-dihydro-3H-pyridazino[4,5-b]indole-1-carboxamide]	< 10 µM	–
CCN(C(=O)c1nn(-c2ccc(C)cc2)c(=O)c2c1c1ccccc1n2C)c1ccc2c(c1)OC(F)(F)O2 [Example 133, N-(2,2-difluorobenzo[d][1,3]dioxol-5-yl)-N-ethyl-5-methyl-4-oxo-3-(p-tolyl)-4,5-dihydro-3H-pyridazino[4,5-b]indole-1-carboxamide]	< 10 µM	–
CCN(C(=O)c1nn(-c2ccc(C)cc2)c(=O)c2c1c1ccccc1n2C)c1cc(Cl)ccc1C(=O)O [Example 134, 4-chloro-2-(N-ethyl-5-methyl-4-oxo-3-(p-tolyl)-4,5-dihydro-3H-pyridazino[4,5-b]indole-1-carboxamido)benzoic acid]	< 10 µM	–
Cc1ccc(-n2nc(C(=O)Nc3cc(Cl)ccc3C(=O)O)c3c4ccccc4n(C)c3c2=O)cc1 [Example 135, 4-chloro-2-(5-methyl-4-oxo-3-(p-tolyl)-4,5-dihydro-3H-pyridazino[4,5-b]indole-1-carboxamido)benzoic acid]	< 10 µM	–
CCN(C(=O)c1nn(Cc2ccccc2)c(=O)c2c1c1ccccc1n2C)c1ccccc1 [Example 136, 3-benzyl-N-ethyl-5-methyl-4-oxo-N-phenyl-4,5-dihydro-3H-pyridazino[4,5-b]indole-1-carboxamide]	> 20 µM	–
CCN(C(=O)c1nn(C2CCN(Cc3ccccc3)CC2)c(=O)c2c1c1ccccc1n2C)c1ccccc1 [Example 137, 3-(1-benzylpiperidin-4-yl)-N-ethyl-5-methyl-4-oxo-N-phenyl-4,5-dihydro-3H-pyridazino[4,5-b]indole-1-carboxamide]	< 10 µM	–
CCN(C(=O)c1nn(C(C)C)c(=O)c2c1c1ccccc1n2C)c1cccc(Cl)c1 [Example 140, N-(3-chlorophenyl)-N-ethyl-3-isopropyl-5-methyl-4-oxo-4,5-dihydro-3H-pyridazino[4,5-b]indole-1-carboxamide]	< 10 µM	–
